Read-outs that look alike come from different tables or passages of the source.
Experiments:
MCL-1 = MCL-1 (Homo sapiens (Human), UniProt Q07820); experiment: Cell free Mcl-1:Bim affinity assay (fluorescence polarization competition); assay type: binding; conditions: 15 nM MCL-1, 5 nM FITC-Bim, 1 hour at room temperature, read-out: BIM_Ki
Procedure, shortened: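 Compounds competed with FITC-labelled Bim peptide (5 nM) for MCL-1 (15 nM) in HEPES/NaCl buffer with 1% DMSO, 1 h at room temperature. Fluorescence polarization (535 nm emission) gave % inhibition versus DMSO and positive controls; IC50 from 10-point curves, converted to Ki by the Nikolovska-Coleska equation.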

H929 cells = experiment: Cell viability assay (H929 10 FBS); assay type: cell-based; conditions: Homo sapiens, NCI-H929, 24 hours, read-out: H929_10FBS IC50
Procedure, shortened: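 H929 cells, 4000/well, in RPMI 1640 with 10% FBS, sodium pyruvate, HEPES and glucose were exposed to compound 24 h at 37 °C. Viability read as luminescence after 30-60 min at RT with CellTiter-Glo or ATPlite 1 Step.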

Chain of MCL-1 (Q07820 whole entry): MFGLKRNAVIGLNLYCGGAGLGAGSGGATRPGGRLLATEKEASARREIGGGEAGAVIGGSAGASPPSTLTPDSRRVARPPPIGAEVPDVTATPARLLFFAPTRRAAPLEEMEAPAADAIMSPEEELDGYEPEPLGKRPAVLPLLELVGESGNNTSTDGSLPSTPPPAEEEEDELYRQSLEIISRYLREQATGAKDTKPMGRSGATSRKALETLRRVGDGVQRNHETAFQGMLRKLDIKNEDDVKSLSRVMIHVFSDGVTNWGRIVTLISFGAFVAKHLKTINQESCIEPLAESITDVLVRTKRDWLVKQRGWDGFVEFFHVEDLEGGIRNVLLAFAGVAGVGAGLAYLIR

| SMILES | Ki (MCL-1; class symbols) [µM] | IC50 (H929 cells) [µM] | Ki (MCL-1; numeric values) [µM] |
| --- | --- | --- | --- |
| CCN1C/C=C/[C@H](OC(=O)N(C)C)[C@@H]2CC[C@H]2CN2C[C@@]3(CCCc4cc(Cl)ccc43)COc3ccc(cc32)S(=O)(=O)NC(=O)C1(C)C [Example 210, [(3R,6R,7S,8E,22S)-6′-Chloro-11-ethyl-12,12-dimethyl-13,15,15-trioxo-spiro[20-oxa-15-thia-1,11,14-triazatetracyclo[14.7.2.03,6.019,24]pentacosa-8,16,18,24-tetraene-22,1′-tetralin]-7-yl] N,N-dimethylcarbamate] | < 0.001 | < 0.5 |  |
| CN1C/C=C/[C@H](OCCN2CCC(F)(F)C2)[C@@H]2CC[C@H]2CN2C[C@@]3(CCCc4cc(Cl)ccc43)COc3ccc(cc32)S(=O)(=O)NC(=O)C1(C)C [Example 288, (3R,6R,7S,8E,22S)-6′-Chloro-7-[2-(3,3-difluoropyrrolidin-1-yl)ethoxy]-11,12,12-trimethyl-15,15-dioxo-spiro[20-oxa-15-thia-1,11,14-triazatetracyclo[14.7.2.03,6.019,24]pentacosa-8,16,18,24-tetraene-22,1′-tetralin]-13-one] | 0.001 to 0.1 | > 1 |  |
| CO[C@@H]1/C=C/CN(S(C)(=O)=O)[C@H](C)C(=O)NS(=O)(=O)c2ccc3c(c2)N(C[C@@H]2CC[C@H]21)C[C@@]1(CCCc2cc(Cl)ccc21)CO3 [Example 135, (3R,6R,7R,8E,12R,22S)-6′-Chloro-7-methoxy-12-methyl-11-methylsulfonyl-15,15-dioxo-spiro[20-oxa-15-thia-1,11,14-triazatetracyclo[14.7.2.03,6.019,24]pentacosa-8,16,18,24-tetraene-22,1′-tetralin]-13-one] | 0.001 to 0.1 | > 1 |  |
| CC(=O)NS(=O)(=O)c1ccc2c(c1)N(Cc1cnn(C)c1)CC1(CCCc3cc(Cl)ccc31)CO2 (stereo not drawn) [Example 9, N-[6′-Chloro-5-[(1-methylpyrazol-4-yl)methyl]spiro[2,4-dihydro-1,5-benzoxazepine-3,1′-tetralin]-7-yl]sulfonylacetamide] |  | > 1 | 1.64 |
| CO[C@H]1CCN(C(=O)O[C@H]2/C=C/COC(C)(C)C(=O)NS(=O)(=O)c3ccc4c(c3)N(C[C@@H]3CC[C@H]32)C[C@@]2(CCCc3cc(Cl)ccc32)CO4)C1 [Example 195, [(3R,6R,7S,8E,22S)-6′-Chloro-12,12-dimethyl-13,15,15-trioxo-spiro[11,20-dioxa-15-thia-1,14-diazatetracyclo[14.7.2.03,6.019,24]pentacosa-8,16,18,24-tetraene-22,1′-tetralin]-7-yl] (3S)-3-methoxypyrrolidine-1-carboxylate] | < 0.001 | < 0.5 |  |
| CC1(C)OC/C=C/[C@H](OC(=O)N2CCN(CCO)CC2)[C@@H]2CC[C@H]2CN2C[C@@]3(CCCc4cc(Cl)ccc43)COc3ccc(cc32)S(=O)(=O)NC1=O [Example 148, [(3R,6R,7S,8E,22S)-6′-Chloro-12,12-dimethyl-13,15,15-trioxo-spiro[11,20-dioxa-15-thia-1,14-diazatetracyclo[14.7.2.03,6.019,24]pentacosa-8,16,18,24-tetraene-22,1′-tetralin]-7-yl] 4-(2-hydroxyethyl)piperazine-1-carboxylate] | < 0.001 | < 0.5 |  |
| CON(C)CCO[C@H]1/C=C/COC(C)(C)C(=O)NS(=O)(=O)c2ccc3c(c2)N(C[C@@H]2CC[C@H]21)C[C@@]1(CCCc2cc(Cl)ccc21)CO3 [Example 267, (3R,6R,7S,8E,22S)-6′-Chloro-7-[2-[methoxy(methyl)amino]ethoxy]-12,12-dimethyl-15,15-dioxo-spiro[11,20-dioxa-15-thia-1,14-diazatetracyclo[14.7.2.03,6.019,24]pentacosa-8,16,18,24-tetraene-22,1′-tetralin]-13-one] | 0.001 to 0.1 | < 1 |  |
| CC1(C)OC/C=C/[C@H](OCC(=O)N2C[C@@H](F)[C@@H](F)C2)[C@@H]2CC[C@H]2CN2C[C@@]3(CCCc4cc(Cl)ccc43)COc3ccc(cc32)S(=O)(=O)NC1=O [Example 291, (3R,6R,7S,8E,22S)-6′-Chloro-7-[2-[(3R,4S)-3,4-difluoropyrrolidin-1-yl]-2-oxo-ethoxy]-12,12-dimethyl-15,15-dioxo-spiro[11,20-dioxa-15λ6-thia-1,14-diazatetracyclo[14.7.2.03,6.019,24]pentacosa-8,16,18,24-tetraene-22,1′-tetralin]-13-one] | < 0.001 | < 1 |  |
| CN1C/C=C/[C@H](OCCN2CC[C@@H](F)C2)[C@@H]2CC[C@H]2CN2C[C@@]3(CCCc4cc(Cl)ccc43)COc3ccc(cc32)S(=O)(=O)NC(=O)C1(C)C [Example 276, (3R,6R,7S,8E,22S)-6′-Chloro-7-[2-[(3R)-3-fluoropyrrolidin-1-yl]ethoxy]-11,12,12-trimethyl-15,15-dioxo-spiro[20-oxa-15-thia-1,11,14-triazatetracyclo[14.7.2.03,6.019,24]pentacosa-8,16,18,24-tetraene-22,1′-tetralin]-13-one] | < 0.001 | < 1 |  |
| O=C(Cc1nccs1)NS(=O)(=O)c1ccc2c(c1)N(CC1CCC1)C[C@@]1(CCCc3cc(Cl)ccc31)CO2 [Example 16, N-[(3S)-6′-Chloro-5-(cyclobutylmethyl)spiro[2,4-dihydro-1,5-benzoxazepine-3,1′-tetralin]-7-yl]sulfonyl-2-thiazol-2-yl-acetamide] |  | > 1 | 0.009 |
| CO[C@@H]1/C=C/C[C@H](C)[C@@H](CO)C(=O)NS(=O)(=O)c2ccc3c(c2)N(C[C@@H]2CC[C@H]21)C[C@@]1(CCCc2cc(Cl)ccc21)CO3 [Example 94, (3R,6R,7R,8E,11S,12S,22S)-6′-Chloro-12-(hydroxymethyl)-7-methoxy-11-methyl-15,15-dioxo-spiro[20-oxa-15-thia-1,14-diazatetracyclo[14.7.2.03,6.019,24]pentacosa-8,16,18,24-tetraene-22,1′-tetralin]-13-one] | < 0.001 | > 1 |  |
| CC1(C)OC/C=C/[C@H](OCC(=O)N2CC(F)(F)C2)[C@@H]2CC[C@H]2CN2C[C@@]3(CCCc4cc(Cl)ccc43)COc3ccc(cc32)S(=O)(=O)NC1=O [Example 278, (3R,6R,7S,8E,22S)-6′-Chloro-7-[2-(3,3-difluoroazetidin-1-yl)-2-oxo-ethoxy]-12,12-dimethyl-15,15-dioxo-spiro[11,20-dioxa-15-thia-1,14-diazatetracyclo[14.7.2.03,6.019,24]pentacosa-8,16,18,24-tetraene-22,1′-tetralin]-13-one] | < 0.001 | < 0.5 |  |
| CO[C@@H]1/C=C/C[C@H](C)[C@@H](CC(=O)N2CCOCC2)C(=O)NS(=O)(=O)c2ccc3c(c2)N(C[C@@H]2CC[C@H]21)C[C@@]1(CCCc2cc(Cl)ccc21)CO3 [Example 92, (3R,6R,7R,8E,11S,12R,22S)-6′-Chloro-7-methoxy-11-methyl-12-(2-morpholino-2-oxo-ethyl)-15,15-dioxo-spiro[20-oxa-15-thia-1,14-diazatetracyclo[14.7.2.03,6.019,24]pentacosa-8,16,18,24-tetraene-22,1′-tetralin]-13-one] | < 0.001 | < 1 |  |
| CN(C)C(=O)O[C@H]1/C=C/CN(C)C2(CCC2)C(=O)NS(=O)(=O)c2ccc3c(c2)N(C[C@@H]2CC[C@H]21)C[C@@]1(CCCc2cc(Cl)ccc21)CO3 [Example 48, [(3R,6R,7R,8E,22S)-6′-Chloro-11-methyl-12,12-(1,3-propylene)-13,15,15-trioxo-spiro[20-oxa-15-thia-1,11,14-triazatetracyclo[14.7.2.03,6.019,24]pentacosa-8,16,18,24-tetraene-22,1′-tetralin]-7-yl] N,N-dimethylcarbamate] | < 0.001 | < 0.5 |  |
| CC1(C)OC/C=C/[C@H](OCCN2CCC2)[C@@H]2CC[C@H]2CN2C[C@@]3(CCCc4cc(Cl)ccc43)COc3ccc(cc32)S(=O)(=O)NC1=O [Example 262, (3R,6R,7S,8E,22S)-7-[2-(Azetidin-1-yl)ethoxy]-6′-chloro-12,12-dimethyl-15,15-dioxo-spiro[11,20-dioxa-15-thia-1,14-diazatetracyclo[14.7.2.03,6.019,24]pentacosa-8,16,18,24-tetraene-22,1′-tetralin]-13-one] | < 0.001 | < 0.5 |  |
| CN(C)C(=O)O[C@H]1/C=C/COC(C)(C)C(=O)NS(=O)(=O)c2ccc3c(c2)N(C[C@@H]2CC[C@H]21)C[C@]1(CO3)OCCc2cc(Cl)ccc21 [Example 250, [(3R,6R,7S,8E,22R)-6′-Chloro-12,12-dimethyl-13,15,15-trioxo-spiro[11,20-dioxa-15-thia-1,14-diazatetracyclo[14.7.2.03,6.019,24]pentacosa-8,16,18,24-tetraene-22,1′-isochromane]-7-yl] N,N-dimethylcarbamate] | < 0.001 | < 0.5 |  |
| CN(C)C(=O)O[C@H]1/C=C/CN2CCC[C@H]2C(=O)NS(=O)(=O)c2ccc3c(c2)N(C[C@@H]2CC[C@H]21)C[C@@]1(CCCc2cc(Cl)ccc21)CO3 [Example 294, [(3R,6R,7S,8E,15S,25S)-6′-Chloro-16,18,18-trioxo-spiro[23-oxa-18-thia-1,11,17-triazapentacyclo[17.7.2.03,6.011,15.022,27]octacosa-8,19,21,27-tetraene-25,1′-tetralin]-7-yl] N,N-dimethylcarbamate] | 0.001 to 0.1 | < 0.5 |  |
| CC1(C)OC/C=C/[C@H](O)[C@@H]2CC[C@H]2CN2C[C@@]3(CCOc4cc(Cl)ccc43)COc3ccc(cc32)S(=O)(=O)NC1=O [Example 246, (3R,6R,7S,8E,22S)-7′-chloro-7-hydroxy-12,12-dimethyl-15,15-dioxo-spiro[11,20-dioxa-15-thia-1,14-diazatetracyclo[14.7.2.03,6.019,24]pentacosa-8,16,18,24-tetraene-22,4′-chromane]-13-one] | 0.001 to 0.1 | > 1 |  |
